What follows are compounds tested on IFNγ-induced NO production in RAW264.7 (assay: Suppression of IFNγ-induced NO production in RAW264.7 mouse macrophages (Griess reagent, normalized to WST-1 cell viability)). Details: RAW264.7 cells, 2 h pre-treatment with drug (0-200 nM), then IFNγ for 24 h.
Format: cell-based
Description: Nitric Oxide Production and Cell Viability. […] On the next day, cells were pre-treated with DMSO or drug (0-200 nM dose range) for 2 hours, and then treated with recombinant mouse IFNγ (R&D Systems) for 24 hours. Nitric Oxide concentration in media was determined using the Griess reagent system (Promega). Cell viability was determined using WST-1 reagent (Roche). IC50 values were determined based on the suppression of IFNγ induced Nitric Oxide production normalized to cell viability.

Row | Compound | IC50
1 | COC(=O)[C@]12CCC(C)(C)C[C@H]1[C@H]1C(=O)C=C3[C@@]4(C)C=C(C(=O)O)C(=O)[C@@H](C)[C@@H]4CC[C@@]3(C)[C@]1(C)CC2 [TX63830] | 4.6 nM
2 | COC(=O)[C@]12CCC(C)(C)C[C@H]1[C@H]1C(=O)C=C3[C@@]4(C)C=C(C(N)=O)C(=O)[C@@H](C)[C@@H]4CC[C@@]3(C)[C@]1(C)CC2 [TX63831] | 21 nM
3 | COC(=O)[C@]12CCC(C)(C)C[C@H]1[C@H]1C(=O)C=C3[C@@]4(C)C=CC(=O)[C@@H](C)[C@@H]4CC[C@@]3(C)[C@]1(C)CC2 [TX63832] | 149 nM
4 | COC(=O)[C@]12CCC(C)(C)C[C@H]1[C@H]1C(=O)C=C3[C@@]4(C)C=C(I)C(=O)[C@@H](C)[C@@H]4CC[C@@]3(C)[C@]1(C)CC2 [TX63833] | 88 nM
5 | C[C@@H]1C(=O)C(C#N)=C[C@]2(C)[C@H]3CC(=O)[C@@H]4[C@@H]5CC(C)(C)CC[C@]5(CO)CC[C@@]4(C)[C@]3(C)CC[C@@H]12 [TX63839] | 4 nM
6 | CC(=O)OC[C@]12CCC(C)(C)C[C@H]1[C@H]1C(=O)C[C@@H]3[C@@]4(C)C=C(C#N)C(=O)[C@@H](C)[C@@H]4CC[C@@]3(C)[C@]1(C)CC2 [TX63840] | 2.9 nM
7 | C[C@@H]1C(=O)C(C#N)=C[C@]2(C)[C@H]3CC(=O)[C@@H]4[C@@H]5CC(C)(C)CC[C@]5(COC(=O)C(F)(F)F)CC[C@@]4(C)[C@]3(C)CC[C@@H]12 [TX63841] | 4.5 nM
8 | CCOC(=O)[C@]12CCC(C)(C)C[C@H]1[C@H]1C(=O)C[C@@H]3[C@@]4(C)C=C(C#N)C(=O)[C@@H](C)[C@@H]4CC[C@@]3(C)[C@]1(C)CC2 [TX63842] | 6.1 nM
9 | CCCCNC(=O)[C@]12CCC(C)(C)C[C@H]1[C@H]1C(=O)C[C@@H]3[C@@]4(C)C=C(C#N)C(=O)[C@@H](C)[C@@H]4CC[C@@]3(C)[C@]1(C)CC2 [TX63843] | 10.9 nM
10 | COC[C@]12CCC(C)(C)C[C@H]1[C@H]1C(=O)C[C@@H]3[C@@]4(C)C=C(C#N)C(=O)[C@@H](C)[C@@H]4CC[C@@]3(C)[C@]1(C)CC2 [TX63858] | 7.2 nM
11 | CSCOC[C@]12CCC(C)(C)C[C@H]1[C@H]1C(=O)C[C@@H]3[C@@]4(C)C=C(C#N)C(=O)[C@@H](C)[C@@H]4CC[C@@]3(C)[C@]1(C)CC2 [TX63859] | 14.6 nM
12 | C[C@@H]1C(=O)C(C#N)=C[C@]2(C)[C@H]3CC(=O)[C@@H]4[C@@H]5CC(C)(C)CC[C@]5(COCF)CC[C@@]4(C)[C@]3(C)CC[C@@H]12 [TX63860] | 4.1 nM
13 | C[C@@H]1C(=O)C(C#N)=C[C@]2(C)C3=CC(=O)[C@@H]4[C@@H]5CC(C)(C)CC[C@]5(NC(N)=O)CC[C@@]4(C)[C@]3(C)CC[C@@H]12 [TX63862] | 28 nM
14 | C[C@@H]1C(=O)C(C#N)=C[C@]2(C)C3=CC(=O)[C@@H]4[C@@H]5CC(C)(C)CC[C@]5(NC(=O)C5CCC5)CC[C@@]4(C)[C@]3(C)CC[C@@H]12 [TX63863] | 1.8 nM
15 | CCC(=O)N[C@]12CCC(C)(C)C[C@H]1[C@H]1C(=O)C=C3[C@@]4(C)C=C(C#N)C(=O)[C@@H](C)[C@@H]4CC[C@@]3(C)[C@]1(C)CC2 [TX63864] | 1.9 nM
16 | CCCCCCC(=O)N[C@]12CCC(C)(C)C[C@H]1[C@H]1C(=O)C=C3[C@@]4(C)C=C(C#N)C(=O)[C@@H](C)[C@@H]4CC[C@@]3(C)[C@]1(C)CC2 [TX63865] | 9.4 nM
17 | C[C@@H]1C(=O)C(C#N)=C[C@]2(C)C3=CC(=O)[C@@H]4[C@@H]5CC(C)(C)CC[C@]5(NC(=O)C5CC5)CC[C@@]4(C)[C@]3(C)CC[C@@H]12 [TX63866] | 1.4 nM

Row | Compound | IC50
18 | COC(=O)CC[C@]12CCC(C)(C)C[C@H]1[C@H]1C(=O)C=C3[C@@]4(C)C=C(C#N)C(=O)[C@@H](C)[C@@H]4CC[C@@]3(C)[C@]1(C)CC2 [TX63867] | 1.3 nM
19 | C[C@@H]1C(=O)C(C#N)=C[C@]2(C)C3=CC(=O)[C@@H]4[C@@H]5CC(C)(C)CC[C@@H]5CC[C@@]4(C)[C@]3(C)CC[C@@H]12 [TX63869] | 3.8 nM
20 | COC(=O)[C@]12CCC(C)(C)C[C@H]1[C@@]1(O)C(=O)C=C3[C@@]4(C)C=C(C#N)C(=O)[C@@H](C)[C@@H]4CC[C@@]3(C)[C@]1(C)CC2 [TX63870] | 1.1 nM
21 | C[C@@H]1C(=O)C(C#N)=C[C@]2(C)C3=CC(=O)[C@@H]4[C@@H]5CC(C)(C)CC[C@]5(NC(=O)N(C)C)CC[C@@]4(C)[C@]3(C)CC[C@@H]12 [TX63875] | 1.3 nM
22 | CNC(=O)N[C@]12CCC(C)(C)C[C@H]1[C@H]1C(=O)C=C3[C@@]4(C)C=C(C#N)C(=O)[C@@H](C)[C@@H]4CC[C@@]3(C)[C@]1(C)CC2 [TX63876] | 7.3 nM
23 | CCCCNC(=O)[C@]12CCC(C)(C)C[C@H]1[C@H]1C(=O)C=C3[C@@]4(C)C=C(C#N)C(=O)[C@@H](C)[C@@H]4CC[C@@]3(C)[C@]1(C)CC2 [TX63877] | 1.3 nM
24 | C[C@@H]1C(=O)C(C#N)=C[C@]2(C)C3=CC(=O)[C@@H]4[C@@H]5CC(C)(C)CC[C@]5(C(=O)N(C)C)CC[C@@]4(C)[C@]3(C)CC[C@@H]12 [TX63878] | 1.4 nM
25 | C[C@@H]1C(=O)C(C#N)=C[C@]2(C)C3=CC(=O)[C@@H]4[C@@H]5CC(C)(C)CC[C@]5(C(=O)N5CCCCC5)CC[C@@]4(C)[C@]3(C)CC[C@@H]12 [TX63880] | 1.6 nM
26 | C[C@@H]1C(=O)C(C#N)=C[C@]2(C)C3=CC(=O)[C@@H]4[C@@H]5CC(C)(C)CC[C@]5(C(=O)N5CCOCC5)CC[C@@]4(C)[C@]3(C)CC[C@@H]12 [TX63881] | 0.9 nM
27 | CONC(=O)[C@]12CCC(C)(C)C[C@H]1[C@H]1C(=O)C=C3[C@@]4(C)C=C(C#N)C(=O)[C@@H](C)[C@@H]4CC[C@@]3(C)[C@]1(C)CC2 [TX63882] | 1.6 nM
28 | CNC(=O)CC[C@]12CCC(C)(C)C[C@H]1[C@H]1C(=O)C=C3[C@@]4(C)C=C(C#N)C(=O)[C@@H](C)[C@@H]4CC[C@@]3(C)[C@]1(C)CC2 [TX63886] | 0.3 nM
29 | C[C@@H]1C(=O)C(C#N)=C[C@]2(C)C3=CC(=O)[C@@H]4[C@@H]5CC(C)(C)CC[C@]5(CCC(=O)NCC(F)(F)F)CC[C@@]4(C)[C@]3(C)CC[C@@H]12 [TX63887] | 0.8 nM
30 | C[C@@H]1C(=O)C(C#N)=C[C@]2(C)C3=CC(=O)[C@@H]4[C@@H]5CC(C)(C)CC[C@]5(CCC(=O)N5CCOCC5)CC[C@@]4(C)[C@]3(C)CC[C@@H]12 [TX63888] | 0.3 nM
31 | C[C@@H]1C(=O)C(C#N)=C[C@]2(C)C3=CC(=O)[C@@H]4[C@@H]5CC(C)(C)CC[C@]5(CCC(=O)N5CCC5)CC[C@@]4(C)[C@]3(C)CC[C@@H]12 [TX63889] | 0.4 nM
32 | C[C@@H]1C(=O)C(C#N)=C[C@]2(C)C3=CC(=O)[C@@H]4[C@@H]5CC(C)(C)CC[C@]5(CCC(=O)N5CCC(F)(F)C5)CC[C@@]4(C)[C@]3(C)CC[C@@H]12 [TX63890] | 0.8 nM
33 | C[C@@H]1C(=O)C(C#N)=C[C@]2(C)C3=CC(=O)[C@@H]4[C@@H]5CC(C)(C)CC[C@]5(CCC(=O)O)CC[C@@]4(C)[C@]3(C)CC[C@@H]12 [TX63891] | 1.3 nM
34 | CCNC(=O)CC[C@]12CCC(C)(C)C[C@H]1[C@H]1C(=O)C=C3[C@@]4(C)C=C(C#N)C(=O)[C@@H](C)[C@@H]4CC[C@@]3(C)[C@]1(C)CC2 [TX63892] | 0.3 nM

Source: US9290536B2, “C4 monomethyl triterpenoid derivatives and methods of use thereof” (Reata Pharmaceuticals, Inc., priority 2011, dated 2016)
